In patent US10093660B2, “Sulfoximine substituted quinazolines for pharmaceutical compositions” (EVOTEC INTERNATIONAL GMBH, priority 2013, dated 2018):

What was measured:
MNK2a = MNK2a (Homo sapiens (Human), UniProt Q9HBH9); assay: MNK2a in vitro kinase assay (Assay 2), ADP-Glo; type: biochemical; conditions: assay 2; read-out: MNK2 IC50
From the text: B. MNK2a In Vitro Kinase Assay (Assay 2)

MNK1a = MNK1a (Homo sapiens (Human), UniProt Q9BUB5); assay: MNK1 in vitro kinase assay (Assay 3), Z'-LYTE; type: biochemical; conditions: for inhibition at 1 µM: compound concentration of 1 μM, read-out: MNK1 % INH
From the text: C. MNK1 In Vitro Kinase Assay (Assay 3)
MNK1 Data can be obtained from the MNK1 Z′-LYTE® assay. The MNK1 Z′-LYTE® screening protocol and assay conditions are also described on www.invitrogen.com.
The assay is described as follows:
The Z′-LYTE® biochemical assay employs a fluorescence-based, coupled-enzyme format and is based on the differential sensitivity of phosphorylated and non-phosphorylated peptides to proteolytic cleavage. The peptide substrate is labeled with two fluorophores—one at each end—that make up a FRET pair.
In the primary reaction, the kinase transfers the gamma-phosphate of ATP to a single tyrosine, serine or threonine residue in a synthetic FRET-peptide. In the secondary reaction, a site-specific protease recognizes and cleaves non-phosphorylated FRET-peptides. Phosphorylation of FRET-peptides suppresses cleavage by the Development Reagent. Cleavage disrupts FRET between the donor (i.e., coumarin) and acceptor (i.e., fluorescein) fluorophores on the FRET-peptide, whereas uncleaved, phosphorylated FRET-peptides maintain FRET. A ratiometric method, which calculates the ratio (the Emission Ratio) of donor emission to acceptor emission after excitation of the donor fluorophore at 400 nm, is used to quantitate reaction progress, as shown in the equation below.
The 2×MKNK1 (MNK1) mixture is prepared in 50 mM HEPES pH 7.5, 0.01% BRIJ-35, 10 mM MgCl2, 4 mM MnCl2, 1 mM EGTA, 2 mM DTT.
The Test Compounds are screened in 1% DMSO (final) in the well.
All Peptide/Kinase Mixtures are diluted to a 2× working concentration in the MNK1 Kinase Buffer.
All ATP Solutions are diluted to a 4× working concentration in Kinase Buffer (50 mM HEPES pH 7.5, 0.01% BRIJ-35, 10 mM MgCl2, 1 mM EGTA).
Development Reagent Solution:
The Development Reagent is diluted in Development Buffer
1. 2.5 μL—4× Test Compound
2. 5 μL—2× Peptide/Kinase Mixture
5. 60-minute Kinase Reaction incubation at room temperature
6. 5 μL—Development Reagent Solution
8. 60-minute Development Reaction incubation at room temperature
9. Read on fluorescence plate reader and analyze the data
Control C0%=Average Coumarin emission signal of the 0% Phos. Control F100%=Average Fluorescein emission signal of the 100% Phos. Control F0%=Average Fluorescein emission signal of the 0% Phos. Control Graphing Software
SelectScreen® Kinase Profiling Service uses XLfit from IDBS. […] The activity of MNK proteins can be assayed also by other in vitro kinase assay formats. […] In general, MNK kinase assays can be performed such that a MNK substrate such as a protein or a peptide, which may or may not include modifications as further described below, or others are phosphorylated by MNK proteins having enzymatic activity in vitro. The activity of a candidate agent can then be determined via its ability to decrease the enzymatic activity of the MNK protein. The kinase activity may be detected by change of the chemical, physical or immunological properties of the substrate due to phosphorylation.

Sequence of MNK1a (Q9BUB5 other isoform, or with tags, fused parts or gaps): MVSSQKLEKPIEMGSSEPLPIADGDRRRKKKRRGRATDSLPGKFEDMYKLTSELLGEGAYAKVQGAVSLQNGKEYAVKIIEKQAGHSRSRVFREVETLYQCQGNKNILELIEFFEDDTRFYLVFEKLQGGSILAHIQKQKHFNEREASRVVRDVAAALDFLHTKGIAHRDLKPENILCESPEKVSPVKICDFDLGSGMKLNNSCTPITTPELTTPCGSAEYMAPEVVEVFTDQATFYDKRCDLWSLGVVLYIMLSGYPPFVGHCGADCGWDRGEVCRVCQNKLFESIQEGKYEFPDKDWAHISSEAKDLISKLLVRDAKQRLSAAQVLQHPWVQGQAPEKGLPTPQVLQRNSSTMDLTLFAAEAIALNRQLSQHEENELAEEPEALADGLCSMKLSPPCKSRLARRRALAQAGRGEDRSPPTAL
Sequence of MNK2a (Q9HBH9 whole entry): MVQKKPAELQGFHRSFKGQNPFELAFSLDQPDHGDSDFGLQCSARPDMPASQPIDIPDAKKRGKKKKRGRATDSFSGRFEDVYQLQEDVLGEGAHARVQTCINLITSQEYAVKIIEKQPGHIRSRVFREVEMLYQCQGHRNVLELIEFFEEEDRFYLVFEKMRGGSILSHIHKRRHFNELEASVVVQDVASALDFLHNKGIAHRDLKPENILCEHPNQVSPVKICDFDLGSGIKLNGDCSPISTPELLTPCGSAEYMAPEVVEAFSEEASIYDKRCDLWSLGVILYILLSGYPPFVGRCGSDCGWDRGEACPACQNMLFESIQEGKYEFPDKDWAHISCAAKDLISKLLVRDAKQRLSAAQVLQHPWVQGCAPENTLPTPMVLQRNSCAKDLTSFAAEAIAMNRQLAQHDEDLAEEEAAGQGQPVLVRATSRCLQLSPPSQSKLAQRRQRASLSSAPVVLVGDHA

Structure (SMILES) | IC50 (MNK2a) | inhibition at 1 µM (MNK1a) | IC50 (MNK1a)
CS(C)(=O)=Nc1cc(F)c2c(Nc3ccc(F)cc3O[C@H]3COC[C@H]3O)ncnc2c1 (racemic) [Example 2.52] | 15 nM | 97% | –
CO[C@@H]1CCC(Oc2cc(F)ccc2Nc2ncnc3cc(N=S4(=O)CCC4)cc(C)c23)CO1 (mixture of isomers) [Example 2.56] | 2 nM | 95% | –
CO[C@@H]1COC[C@@H]1Oc1cc(F)ccc1Nc1ncnc2cc(N=S(C)(C)=O)cc(F)c12 (racemic) [Example 2.57] | 6 nM | 82% | –
Cc1cc(N=S(C)(=O)C2CCOCC2)cc2ncnc(Nc3ccc(F)cc3O[C@@H]3COC[C@@H]3O)c12 (mixture of isomers) [Example 2.65] | 10 nM | 100% | –
Cc1cc(N=S(C)(=O)C(C)(C)C)cc2ncnc(Nc3ccc(F)cc3O[C@@H]3COC[C@@H]3O)c12 (mixture of isomers) [Example 2.68] | 11 nM | 94% | –
Cc1cc(N=S(C)(=O)c2cccnc2)cc2ncnc(Nc3ccc(F)cc3O[C@@H]3COC[C@@H]3O)c12 (mixture of isomers) [Example 2.70] | 10 nM | 92% | –
Cc1cc(N=S(C)(=O)C(C)C)cc2ncnc(Nc3ccc(F)cc3O[C@@H]3COC[C@@H]3O)c12 (mixture of isomers) [Example 2.71] | 6 nM | 94% | –
Cc1cc(N=S2(=O)CCC(O)CC2)cc2ncnc(Nc3ccc(F)cc3O[C@@H]3COC[C@@H]3O)c12 (mixture of isomers) [Example 2.76] | 7 nM | 96% | –
Cc1cc(N=S2(=O)CCC(C)C2)cc2ncnc(Nc3ccc(F)cc3O[C@@H]3COC[C@@H]3O)c12 (mixture of isomers) [Example 2.83] | 4 nM | 97% | –
CC(=O)O[C@@H]1COC[C@@H]1Oc1cc(F)ccc1Nc1ncnc2cc(N=S(C)(C)=O)cc(C)c12 (racemic) [Example 6.9] | 7 nM | 90% | –
COCCO[C@@H]1COC[C@@H]1Oc1cc(F)ccc1Nc1ncnc2cc(N=S(C)(C)=O)cc(C)c12 (racemic) [Example 7.1] | 45 nM | 62% | –
COc1cc(N=S2(=O)CCC2)cc2ncnc(Nc3cccnc3O[C@H]3COC[C@H]3O)c12 (racemic) [Example 8.4] | 11 nM | – | 104 nM
O=S1(=Nc2cc(Cl)c3c(Nc4ccc(F)cc4O[C@@H]4COC[C@@H]4O)ncnc3c2)CCC1 (single isomer, unassigned) [Example 1.34] | 3 nM | 97% | –
O=S1(=Nc2cc(Cl)c3c(Nc4ccc(F)cc4O[C@H]4COC[C@H]4O)ncnc3c2)CCC1 (single isomer, unassigned) [Example 1.35] | 1 nM | – | 25 nM
Cc1cc(N=S2(=O)CCCC2)cc2ncnc(Nc3ccc(F)cc3O[C@H]3COC[C@H]3C#N)c12 [Example 1.1] | 9 nM | – | 104 nM
Cc1cc(N=S(C)(C)=O)cc2ncnc(Nc3ccc(F)cc3O[C@H]3COC[C@H]3C#N)c12 [Example 1.2] | 19 nM | – | 383 nM
O=S1(=Nc2cc(Cl)c3c(Nc4ccc(F)cc4O[C@H]4COC[C@@H]4O)ncnc3c2)CCC1 [Example 1.7] | 2 nM | – | 18 nM
O=S1(=Nc2cc(Cl)c3c(Nc4ccc(F)cc4O[C@H]4COC[C@@H]4O)ncnc3c2)CCCC1 [Example 1.9] | 2 nM | 98% | 28 nM
CS(C)(=O)=Nc1cc(OC(F)F)c2c(Nc3ccc(F)cc3O[C@H]3COC[C@@H]3O)ncnc2c1 [Example 1.11] | 32 nM | 64% | –
CS(C)(=O)=Nc1cc(C(F)(F)F)c2c(Nc3ccc(F)cc3O[C@H]3COC[C@@H]3O)ncnc2c1 [Example 1.12] | 4 nM | 88% | –

More lines, now with the values ahead:

IC50 (MNK2a) | inhibition at 1 µM (MNK1a) | IC50 (MNK1a) | Structure (SMILES)
6 nM | 94% | – | Cc1cc(N=S(C)(C)=O)cc2ncnc(Nc3ccc(F)cc3O[C@H]3COC[C@H]3OCC3CC3)c12 (racemic) [Example 7.2]
7 nM | 93% | – | Cc1cc(N=S(C)(C)=O)cc2ncnc(Nc3ccc(F)cc3O[C@H]3COC[C@H]3OC3COC3)c12 (racemic) [Example 7.3]
21 nM | 97% | – | COc1cc(N=S2(=O)CCCC2)cc2ncnc(Nc3cccnc3O[C@H]3COC[C@H]3O)c12 (racemic) [Example 8.5]
2 nM | 96% | – | COc1cc(N=S(C)(C)=O)cc2ncnc(Nc3ccc(F)cc3O[C@H]3COC[C@H]3OC)c12 (racemic) [Example 9.1]
2 nM | 94% | – | COc1cc(N=S2(=O)CCCC2)cc2ncnc(Nc3ccc(F)cc3O[C@H]3COC[C@H]3OC)c12 (racemic) [Example 9.2]
26 nM | 90% | – | COc1cc(N=S(C)(C)=O)cc2ncnc(Nc3ccc(F)cc3O[C@H]3COC[C@H]3O)c12 (racemic) [Example 9.3]
6 nM | 99% | – | COc1cc(N=S2(=O)CCCC2)cc2ncnc(Nc3ccc(F)cc3O[C@H]3COC[C@H]3O)c12 (racemic) [Example 9.13]
7 nM | 98% | – | COc1cc(N=S2(=O)CCC2)cc2ncnc(Nc3ccc(F)cc3O[C@H]3COC[C@H]3O)c12 (racemic) [Example 9.16]
1 nM | – | 55 nM | Cc1cc(N=S2(=O)CCCC2)cc2ncnc(Nc3ccc(F)cc3O[C@H]3COC[C@H]3OCCF)c12 (racemic) [Example 10.1]
2 nM | 93% | – | Cc1cc(N=S(C)(C)=O)cc2ncnc(Nc3ccc(F)cc3O[C@H]3COC[C@H]3OCCF)c12 (racemic) [Example 10.2]
3 nM | – | 41 nM | Cc1cc(N=S(C)(C)=O)cc2ncnc(Nc3ccc(F)cc3O[C@H]3COC[C@H]3OCC(F)F)c12 (racemic) [Example 10.3]
3 nM | 104% | – | Cc1cc(N=S2(=O)CCCC2)cc2ncnc(Nc3ccc(F)cc3O[C@H]3COC[C@H]3OCC(F)F)c12 (racemic) [Example 10.4]
6 nM | 96% | – | CO[C@@H]1C=C[C@@H](Oc2cc(F)ccc2Nc2ncnc3cc(N=S(C)(C)=O)cc(C)c23)CO1 (racemic) [Example 13.1]
13 nM | 69% | – | CO[C@@H]1COC[C@H]1Oc1cc(F)ccc1Nc1ncnc2cc(N=S(C)(C)=O)cc(C)c12 (racemic) [Example 13.2]
1 nM | 97% | – | CO[C@H]1COC[C@H]1Oc1ncccc1Nc1ncnc2cc(N=S3(=O)CCCC3)cc(C)c12 (single isomer, unassigned) [Example 14.1]
10 nM | 86% | – | CO[C@@H]1COC[C@@H]1Oc1ncccc1Nc1ncnc2cc(N=S3(=O)CCCC3)cc(C)c12 (single isomer, unassigned) [Example 14.2]
3 nM | 99% | – | Cc1cc(N=S2(=O)CCCC2)cc2ncnc(Nc3ccc(F)cc3O[C@@H]3COC[C@@H]3O)c12 (single isomer, unassigned) [Example 14.5]
2 nM | 101% | – | Cc1cc(N=S2(=O)CCCC2)cc2ncnc(Nc3ccc(F)cc3O[C@H]3COC[C@H]3O)c12 (single isomer, unassigned) [Example 14.6]
3 nM | 100% | – | O=S1(=Nc2cc(Cl)c3c(Nc4ccc(F)cc4O[C@@H]4COC[C@@H]4O)ncnc3c2)CCCC1 (single isomer, unassigned) [Example 14.9]
2 nM | 101% | – | O=S1(=Nc2cc(Cl)c3c(Nc4ccc(F)cc4O[C@H]4COC[C@H]4O)ncnc3c2)CCCC1 (single isomer, unassigned) [Example 14.10]
4 nM | 96% | – | CC[S@](C)(=O)=Nc1cc(C)c2c(Nc3ccc(F)cc3O[C@H]3COC[C@@H]3O)ncnc2c1 (single isomer, unassigned) [Example 14.11]
15 nM | 86% | – | CC[S@@](C)(=O)=Nc1cc(C)c2c(Nc3ccc(F)cc3O[C@H]3COC[C@@H]3O)ncnc2c1 (single isomer, unassigned) [Example 14.12]
